What was measured:
[1] = body weight of ICR mice with transplanted S180 tumor; format: in vivo
Procedure: (§1) 32 ICR mice, male, weight 18-20 g, were supplied by Sippr/Bk Laboratory Animals Ltd, certification: SCXK (shanghai) 2008-2016.
(§2) The ascites of two vigorous growing ICR mice with S180 ascites tumor was extracted under a sterile condition, diluted 6 times with saline water, axilla subcutaneously inoculated with a dosage of 0.2 ml per mouse. The mice were randomly divided into four groups the next day, 8 for each group.
(§3) The groups were blank control group, SIPI-601 60 mg/kg iv group (administered once every three days), SIPI-601 120 mg/kg iv group (administered once every six days), Oxaliplatin 9 mg/kg iv group (administered once every other day).
(§4) The mice were administered the second day after inoculation. After the treatment, the survived animals were euthanatized, the tumors were taken and weighed to calculate anti-tumor rate.

transplanted S180 tumor = test: anti-tumor rate in ICR mice with transplanted S180 tumor; format: in vivo
Procedure: The model of ICR mice with transplanted 5180 sarcoma in vivo was used to determine the anticancer effect of the compound. Specific steps are as follows:
Samples: cis-3-hydroxy-acrylic acid diammine platinum (II), serial number: SIPI-601.
Positive control: Oxaliplatin for injection, Jiangsu Hengrui Medicine Co., Ltd, lot number: 13082811, 50 mg per bottle.
Samples: SIPI-601, which was dissolved by a 10% glucose injection.
Positive control: Oxaliplatin for injection, which was dissolved by a 10% glucose injection.
as §1
Tumor cell trains: two ICR mice with S180 ascites tumor, passage cultured by pharmacological office, Shanghai State Institute of Pharmaceutical Industry (SIPI).
as §2, §3, §4

[2] = system: human poorly differentiated gastric cancer cell stain BGC-823; test: MTT cytotoxicity on human tumor cell strains in vitro; format: cell-based; conditions: BGC-823, MTT, 48 hours
Procedure: (§5) MTT method was employed to test the cytotoxic effect caused by the compound on human tumor cell stains in vitro. Specific steps are as follows:
(§6) The tumor cells (human poorly differentiated gastric cancer cell stain BGC-823, human breast cancer cell strain Bcap37, human oral cancer cell strain KB) was cultured in a 10% calf serum, inoculated into a 96-well plate (2×10^5 cells per well) at 37° C. in an incubator with 5% CO2. The cis-3-hydroxy-acrylic acid diammine platinum (II) was dissolved in DMSO to obtain a solution with a concentration of 10 mg/ml. The solution was diluted to the required concentration with a phosphate buffer, and then added into the wells of the 96-well plate respectively, each concentration was for two wells, 10 μl per well, therefore, each concentration has two parallel tests. DMSO was diluted accordingly in a gradient manner and added into the wells of the 96-well plate as controls.
(§7) After the 96-well plate was kept at 37° C. in the incubator with 5% CO2 for 48 hours, 20 μl 5 mg/ml MTT solution was added into per well. Then the 96-well plate were further kept for 3-4 hours in the incubator at the same temperature. 100 μl solvent was added into per well and the 96-well plate was kept warm in the incubator overnight to make the generated formazan crystals dissolve sufficiently. The light absorption value at 492 nm was determined.
(§8) A relative survival rate of cells was calculated according to the light absorption value after the treatment of the compound. The calculation formula is as follows: […]
(§9) The IC50 of the compound against each kind of tumor cells was calculated though software.

[3] = system: human breast cancer cell strain Bcap37; test: as above; format: cell-based; conditions: 48 hours
Procedure: as §5, §6, §7, §8, §9

[4] = system: human oral cancer cell strain KB; test: as above; format: cell-based; conditions: 48 hours
Procedure: as §5, §6, §7, §8, §9

[5] = water-solubility at room temperature
[6] = 9 mg/kg iv, once every other day
[7] = 60 mg/kg iv, once every three days
[8] = 120 mg/kg iv, once every six days

| Molecule | The final body weight after the removal of tumor [1, 6] [g] | The anti-tumor rate (transplanted S180 tumor; [6]) [%] | The final body weight after the removal of tumor [1, 7] [g] | The final body weight after the removal of tumor [1, 8] [g] | The anti-tumor rate (transplanted S180 tumor; [7]) [%] | The anti-tumor rate (transplanted S180 tumor; [8]) [%] | IC50 [2] [µg/mL] | IC50 [3] [µg/mL] | IC50 [4] [µg/mL] | water-solubility [5] |
| --- | --- | --- | --- | --- | --- | --- | --- | --- | --- | --- |
| O=C1[O][Pt]2([NH][C@@H]3CCCC[C@H]3[NH]2)[O]C1=O [Oxaliplatin, reference compound] | 19.92 | 62.42 |  |  |  |  |  |  |  |  |
| cis-3-hydroxy-acrylic acid diammine platinum (II) [SIPI-601] |  |  | 22.46 | 20.34 | 64.39 | 66.83 | 2.28 | 21.58 | 33.94 | greater than 25 mg/mL |
